Reference: the supplement of paper PMC10307832

What was measured:
Assay in all cases: relative viability (nuclei count vs DMSO), 5 days (fraction); higher = more cells survive
IDH-C35 + AZD7762 = compound: Cc1ccccc1C(C(=O)NC1CCCCC1)N(C(=O)Cn1ccnc1C)c1cccc(F)c1 [IDH-C35] + NC(=O)Nc1cc(-c2cccc(F)c2)sc1C(=O)N[C@H]1CCCNC1 [AZD7762] (partner 0.2 µM)
Procedure, shortened: (§1)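 Lung cancer cell lines were seeded in 1536-well plates and dosed by pin tool the next day, with either a single drug or a fixed anchor-drug dose combined with five library-drug doses (not always all listed) spaced in √10 steps. Five days later, one step fixed the cells and stained their nuclei (final 0.05% Triton X-100, 1% formaldehyde, 1 ug/ml Hoechst), and nuclei were counted on 4× images. Relative viability is the nuclei count in treated wells divided by the count in vehicle wells, and each value is the median of duplicate plates.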

[1] = compound: CC1=C(C(=NN1)C)CC2=C(C3=C(S2)N(C(=O)N(C3=O)C)CC(C)C)C(=O)N4C[C@@H](CO4)O + O=C(CCCCCCC(=O)Nc1ccccc1)NO [Vorinostat] (partner 1 µM)
Procedure, shortened: as §1

[2] = compound: CC1=C(C(=NN1)C)CC2=C(C3=C(S2)N(C(=O)N(C3=O)C)CC(C)C)C(=O)N4C[C@@H](CO4)O + CC(C)C[C@H](NC(=O)[C@H](Cc1ccccc1)NC(=O)c1cnccn1)B(O)O [Bortezomib] (partner 0.002 µM)
Procedure, shortened: as §1

IDH-C35 + Phenformin = compound: Cc1ccccc1C(C(=O)NC1CCCCC1)N(C(=O)Cn1ccnc1C)c1cccc(F)c1 [IDH-C35] + N=C(N)NC(=N)NCCc1ccccc1 [Phenformin] (partner 250 µM)
Procedure, shortened: as §1

Cell Line	relative viability (IDH-C35 + AZD7762; first compound 0.08 µM)	relative viability (IDH-C35 + AZD7762; first compound 0.253 µM)	relative viability (IDH-C35 + AZD7762; first compound 0.8 µM)	relative viability (IDH-C35 + AZD7762; first compound 2.53 µM)	relative viability (IDH-C35 + AZD7762; first compound 8 µM)	relative viability ([1]; first compound 0.0025 µM)	relative viability ([1]; first compound 0.007906 µM)	relative viability ([1]; first compound 0.025 µM)	relative viability ([1]; first compound 0.07906 µM)	relative viability ([1]; first compound 0.25 µM)	relative viability ([2]; first compound 0.0025 µM)	relative viability ([2]; first compound 0.007906 µM)	relative viability ([2]; first compound 0.025 µM)	relative viability ([2]; first compound 0.07906 µM)	relative viability ([2]; first compound 0.25 µM)	relative viability (IDH-C35 + Phenformin; first compound 0.08 µM)	relative viability (IDH-C35 + Phenformin; first compound 0.253 µM)	relative viability (IDH-C35 + Phenformin; first compound 0.8 µM)	relative viability (IDH-C35 + Phenformin; first compound 2.53 µM)	relative viability (IDH-C35 + Phenformin; first compound 8 µM)
NCI-H460	0.623	0.663	0.609	0.586	0.578	0.859	0.689	0.634	0.723	0.857	1.1	1.37	0.984	1.07	1.28	0.547	0.527	0.502	0.488	0.531
NCI-H650	1.04	1.26	1.13	–	0.97	0.549	0.516	0.393	0.35	0.545	1.02	0.714	0.671	0.757	0.825	0.453	0.465	0.505	–	0.421
NCI-H1734	0.575	0.623	0.532	0.49	0.551	0.88	0.868	0.768	0.745	0.76	0.946	0.736	0.893	0.835	0.747	0.402	0.449	0.4	0.359	0.346
LXF-289	1.1	1.06	1.13	1.06	1.19	0.881	0.748	0.829	0.671	0.762	1	0.972	1	1.02	1.07	0.543	0.507	0.524	0.508	0.517
H3255	0.814	0.947	0.924	0.88	0.829	0.969	0.716	0.821	0.844	0.854	0.819	0.79	0.734	0.758	1.02	0.381	0.38	0.365	0.363	0.344
201T	0.62	0.638	0.615	0.514	0.603	0.979	1.02	0.951	0.952	0.973	1.15	1.07	1.03	1.06	1.12	0.469	0.431	0.436	0.466	0.438
NCI-H2126	0.983	0.96	0.983	0.927	0.946	0.919	0.894	0.844	0.84	0.674	1.11	1.15	1.07	1.07	1.15	0.529	0.548	0.525	0.525	0.483
HOP-62	0.624	0.553	0.739	0.519	0.532	0.575	0.895	0.496	0.631	0.65	0.535	1.03	0.753	0.557	1.07	0.718	0.649	0.634	0.618	0.677
CAL-12T	0.545	0.569	0.686	0.589	0.577	0.956	0.962	0.827	0.801	0.772	1.07	0.978	–	0.891	0.926	0.546	0.618	0.556	0.589	0.498
NCI-H1755	0.47	0.574	0.453	0.452	0.462	0.792	0.781	0.724	0.632	0.719	1.01	0.875	0.962	0.963	1.13	0.605	0.614	0.65	0.639	0.649
